Series [1] relates to human-derived colorectal cancer CO-04-0032 subcutaneous xenograft tumor. The experiment in a line: In vivo efficacy, CO-04-0032 subcutaneous xenograft tumor model. The arrangement: species or system BALB/c nude mice. The settings on record: oral, once a day for 28 days; for Tumor volume (Day 28): mean ± SEM. From the text:
Experimental purpose: Study the in vivo efficacy of the test drug on human-derived colorectal cancer CO-04-0032 subcutaneous xenograft tumor model in nude mice.
Experimental design: • (1) Animals: BALB/c nude mice, female, 6 weeks old, weighing 16-18 grams. […] CO-04-0032 was a PDX model of human-derived colon cancer independently developed by WuXi AppTec New Drug Development Co., Ltd. See Table 5 below for the experimental grouping and dosing regimen.

For series [2], the system named is stage IV nasopharyngeal carcinoma. The experiment in a line: Nasopharyngeal carcinoma clinical trial (Subject 5). The class given is in vivo, human. The settings on record: 0.4 mg once a day. On the procedure:
Clinical data: Subject 5. The informed consent form was made on Aug. 19, 2019. During the baseline period, examinations such as vital signs, physical examination, ECOG physical strength score, infectious disease markers, blood routine, urine routine, coagulation function, liver function, kidney function, electrolytes, fasting blood glucose, blood lipids, 12-lead electrocardiogram were performed. The tumor was diagnosed as stage IV nasopharyngeal carcinoma, the lesion was located in the left posterior nasopharynx, and the baseline diameter was 23.1 mm. Two surgical regimens, two radiotherapy regimens, nine different chemotherapy regimens and immunotherapy regimens before medication were all drug-resistant for subject 5 before medication administration; from Aug. 28, 2019, tablets containing compound I were single administered with a dose of 0.4 mg once a day. The dose of 0.4 mg contained four tablets of compound I with a specification of 0.1 mg. After the subject's safety was confirmed, one week later, from Sep. 3, 2019, the tablets containing compound I were single administered continuously with a dose of 0.4 mg once a day, and the dose of 0.4 mg contained four tablets of compound I with a specification of 0.1 mg. […]

Series [3] concerns KYSE-150 esophageal cancer cells. The experiment in a line: CTG cell proliferation IC50, KYSE-150. The series is classed as cell-based. The settings on record: KYSE-150 cells, 72 hours, read-out: Absolute IC50. From the text: • 2). IC50 value: the concentration of inhibitor when 50% inhibitory effect was achieved; • 3). CAL-27 and RPMI 2650: head and neck cancer cell models; HepG2: hepatocellular cancer cells. CAL-27, RPMI 2650 and HepG2 cells were purchased from ATCC, where ATCC® No. was CRL-2095™, CCL-30™, HB-8065™, respectively. • 4). Both KYSE-150 and TE-1 were esophageal cancer cell models. The KYSE-150 cell line was purchased from DSMZ (German Collection of Microorganisms and Cell Cultures), and the DSMZ No. was ACC375; the TE-1 cell line was purchased from National Collection of Authenticated Cell Cultures, catalog number: TCHu89. • 5). RPMI 1640/F12 medium was a 1:1 mixture of RPMI 1640 medium and F12 medium. • 6). The percentages in 10% FBS in Table 1 and Table 2 were volume percentages. (2) Reagents • 1). FBS (fetal bovine serum) (purchased from ExCell, product number: FND500); • 2). MEM medium (purchased from Hyclone, product number: SH30024.01; • 3). DMEM medium (purchased from Gibco, product number: C11995500BT); • 4). MEM NEAA (purchased from Gibco, product number: 11140-050); • 5). RPMI1640 Culture medium (purchased from Gibco, product number: 11875-119); • 6). F12 Culture medium (purchased from Gibco, product number: 11765-054); (3) Test Article and Positive Control Article
2. CTG Method was Used to Determine the Cell Proliferation IC50 of the Compound
• Step 1: Cells in exponential growth phase were harvested, and viable cells were counted with a Vi-Cell XR cytometer. The cell suspension was adjusted to an appropriate concentration with medium. 90 μL of cell suspension was added to each well of a 96-well cell culture plate, and the final cell concentration was 1500-6000 cells/well. • Step 2: The initial concentration of administration of compound I is 3 μM, and the initial concentration of administration of the control drug Alpelisib and Cisplatin was 10 μM, serially diluted 3-fold, a total of 9 concentration gradients and a DMSO control, the final concentration of DMSO in each well was 0.1%, placed in a 37° C., 5% CO2 incubator for 72 hours. • Step 3: After 72 hours of drug treatment, 50 μL (½ culture volume) CTG solution that was melted and equilibrated to room temperature was added to each well according to the CTG operation instructions. […] After 10 minutes, the fluorescence signal value was measured with an Envision2104 plate reader. […]
Cell survival rate was calculated using the formula: Vsample/Vvehicle control×100%. Where, Vsample was the reading of the drug treatment group, and Vvehicle control was the average value of the solvent control group. GraphPad Prism 5.0 software was used, and a S-type dosage-survival rate curve was drawn using a nonlinear regression model and IC50 value was calculated.

Like-named read-outs stand apart in the source and are kept apart here.

As to `COCCOc1cnc2ccc(-c3cnc(OC)c(NS(=O)(=O)c4sc(C)nc4C)c3)cn2c1=O` [Compound I], the T/C in series [1] (0.1 mg/kg) is given as 52%; in series [1] (0.2 mg/kg), 39%; in series [1] (0.4 mg/kg), 30%; in series [1] (0.6 mg/kg) it was 19%. Also, the TGI in series [1] (0.1 mg/kg) worked out at 58%; in series [1] (0.2 mg/kg) it was 64%; in series [1] (0.4 mg/kg), 76%; in series [1] (0.6 mg/kg), 90%. In addition, the “Tumor volume (Day 28)” value in series [1] (0.1 mg/kg) is 760 ± 136 mm^3; in series [1] (0.2 mg/kg) it was 686 ± 171 mm^3; in series [1] (0.4 mg/kg) it was 508 ± 116 mm^3; in series [1] (0.6 mg/kg) it was 315 ± 74 mm^3. Moreover, the “progression-free survival (PFS)” value in series [2] was determined as 10 months. Also, in series [2], the serious side effects result was “no serious side effects”. Further, the IC50 in series [3] (listed as compound I) was less than 1000 nM; in series [3] it was 34 nM.

One may read the T/C as the result in the treated group divided by that in the control group, in per cent. What is called TGI is the reduction of tumour growth relative to the control group. By IC50 is commonly meant the concentration that inhibits the measured activity by half.

The record behind these values is patent US12661357B2, “Use of pyrido[1,2-a]pyrimidone analogue” (GUANGZHOU JOYO PHARMATECH CO., LTD, priority 2021, dated 2026).
